Non-standard residues stand in square brackets, D forms with d. No end group written: not given here. βAib = beta-Aib residue; Aib = CC(C)(N)C(=O)O
test system: Normal Kunming (KM) mice; test: multiple OGTT (mOGTT): hypoglycemic duration after a single administration; format: in vivo; details: monomeric peptides, single injection at the same dose (1.126 nmol), subcutaneous
Method in brief: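 Single administration in normal Kunming mice, followed by oral glucose loading with tail-vein glucose sampled at 0–120 min (0, 10, 20, 40, 60, 120 min). Effective duration ended once mean glucose exceeded the NaCl control group on two occasions.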

Substance | Hypoglycemic [days]
His-aAib-Glu-Gly-Thr-Phe-Thr-Ser-Asp-Val-Cys-Ser-Tyr-Leu-Glu-Gly-Gln-Ala-Ala-Lys[N-ϵ-(N-α-oleoyl-L-γ-glutamyl)]-Glu-Phe-Ile-Ala-Trp-Leu-Val-Arg-Gly-Arg-Gly-OH (HXEGTFTSDVCSYLEGQAAXEFIAWLVRGRG; αAib; oleoyl-γ-glutamyl on Lys; C-terminal acid; Sequence is synthesized; (2)..(2) Xaa is aAib; (20)..(20) Xaa is 26Lys[N-e-(N-a-oleoyl-L-g-glutamyl)]; (31)..(31) C-terminal) [G2 series 14] | 4
His-aAib-Glu-Gly-Thr-Phe-Thr-Ser-Asp-Val-Ser-Cys--Tyr-Leu-Glu-Gly-Gln-Ala-Ala-Lys[N-ϵ-(N-α-oleoyl-L-γ-glutamyl)]-Glu-Phe-Ile-Ala-Trp-Leu-Val-Arg-Gly-Arg-Gly-NH2 (HXEGTFTSDVSCYLEGQAAXEFIAWLVRGRG; Aib; oleoyl-gamma-Glu on Lys; C-terminal amide; Sequence is synthesized; (2)..(2) Xaa is aAib; (20)..(20) Xaa is 26Lys[N-e-(N-a-oleoyl-L-g-glutamyl)]; (31)..(31) N-terminal) [G6 series 47] | 8
His-aAib-Glu-Gly-Thr-Phe-Thr-Ser-Asp-Val-Ser-Cys-Tyr-Leu-Glu-Gly-Gln-Ala-Ala-Lys-Glu-Phe-Ile-Ala-Trp-Leu-Val-Arg-aAib-Arg-NH2 (H[Aib]EGTFTSDVSCYLEGQAAKEFIAWLVR[Aib]R-NH2; also: disulfide-linked homodimer via Cys) [G7 series 51] | 3
His-aAib-Glu-Gly-Thr-Phe-Thr-Ser-Asp-Val-Ser-Cys-Tyr-Leu-Glu-Gly-Gln-Ala-Ala-Lys-Glu-Phe-Ile-Ala-Trp-Leu-Val-Arg-aAib-Arg-OH (H[Aib]EGTFTSDVSCYLEGQAAKEFIAWLVR[Aib]R-OH; also: disulfide-linked homodimer via Cys) [G7 series 52] | 1
His-aAib-Glu-Gly-Thr-Phe-Thr-Ser-Asp-Val-Ser-Cys-Tyr-Leu-Glu-Gly-Gln-Ala-Ala-Lys-Glu-Phe-Ile-Ala-Trp-Leu-Val-Lys-aAib-Arg-NH2 (H[Aib]EGTFTSDVSCYLEGQAAKEFIAWLVK[Aib]R-NH2; also: disulfide-linked homodimer via Cys) [G7 series 53] | 3
His-aAib-Glu-Gly-Thr-Phe-Thr-Ser-Asp-Val-Ser-Cys-Tyr-Leu-Glu-Gly-Gln-Ala-Ala-Lys[N-ϵ-(N-α-Palmitoyl)]-Glu-Phe-Ile-Ala-Trp-Leu-Val-Arg-Gly-Arg-Gly-NH2 (HXEGTFTSDVSCYLEGQAAXEFIAWLVRGRG; not fully specified; Aib; palmitoyl on Lys side chain; C-terminal amide; Sequence is synthesized; (2)..(2) Xaa is aAib; (20)..(20) Xaa is 26Lys[N-e-(N-a-palmitoyl-L-g-glutamyl)]; (31)..(31) N-terminal) [G4 series 37] | 7
His-aAib-Glu-Gly-Thr-Phe-Thr-Ser-Asp-Val-Ser-Cys-Tyr-Leu-Glu-Gly-Gln-Ala-Ala-Lys[N-ϵ-(N-α-Palmitoyl-L-γ-glutamyl)]-Glu-Phe-Ile-Ala-Trp-Leu-Val-Arg-Gly-Arg-Gly-NH2 (HXEGTFTSDVSCYLEGQAAXEFIAWLVRGRG; Aib; palmitoyl-gamma-Glu on Lys; C-terminal amide; Sequence is synthesized; (2)..(2) Xaa is aAib; (20)..(20) Xaa is 26Lys[N-e-(N-a-palmitoyl-L-g-glutamyl)]; (31)..(31) N-terminal) [G6 series 48] | 7
His-aAib-Glu-Gly-Thr-Phe-Thr-Ser-Asp-Val-Ser-Cys-Tyr-Leu-Glu-Gly-Gln-Ala-Ala-Lys[N-ϵ-(N-α-Palmitoyl-L-γ-glutamyl)]-Glu-Phe-Ile-Ala-Trp-Leu-Val-Arg-Gly-Arg-Gly-OH (HXEGTFTSDVSCYLEGQAAXEFIAWLVRGRG; Aib; palmitoyl-gamma-Glu on Lys; C-terminal acid; Sequence is synthesized; (2)..(2) Xaa is aAib; (20)..(20) Xaa 26Lys[N-e-(N-a-palmitoyl-L-g-glutamyl)]; (31)..(31) C-terminal) [G6 series 45] | 4
His-aAib-Glu-Gly-Thr-Phe-Thr-Ser-Asp-Val-Ser-Cys-Tyr-Leu-Glu-Gly-Gln-Ala-Ala-Lys[N-ϵ-(N-α-Palmitoyl-L-γ-glutamyl)]-Glu-Phe-Ile-Ala-Trp-Leu-Val-Lys[N-ϵ-(N-α-Palmitoyl-L-γ-glutamyl)]-Gly-Arg-Gly-NH2 (HXEGTFTSDVSCYLEGQAAXEFIAWLVXGRG; Aib; two palmitoyl-gamma-Glu on Lys; C-terminal amide; Sequence is synthesized; (2)..(2) Xaa is aAib; (20)..(20) Xaa is 26Lys[N-e-(N-a-palmitoyl-L-g-glutamyl)]; (28)..(28) Xaa is 26Lys[N-e-(N-a-palmitoyl-L-g-glutamyl)]; (31)..(31) N-terminal) [G5 series 42] | 3
His-aAib-Glu-Gly-Thr-Phe-Thr-Ser-Asp-Val-Ser-Cys-Tyr-Leu-Glu-Gly-Gln-Ala-Ala-Lys[N-ϵ-(N-α-oleoyl)]-Glu-Phe-Ile-Ala-Trp-Leu-Val-Arg-Gly-Arg-Gly-NH2 (HXEGTFTSDVSCYLEGQAAXEFIAWLVRGRG; not fully specified; Aib; oleoyl on Lys side chain; C-terminal amide; Sequence is synthesized; (2)..(2) Xaa is aAib; (20)..(20) Xaa is 26Lys[N-e-(N-a-oleoyl-L-g-glutamyl)]; (31)..(31) N-terminal) [G4 series 36] | 8
His-aAib-Glu-Gly-Thr-Phe-Thr-Ser-Asp-Val-Ser-Cys-Tyr-Leu-Glu-Gly-Gln-Ala-Ala-Lys[N-ϵ-(N-α-oleoyl-L-γ-glutamyl)]-Glu-Phe-Ile-Ala-Trp-Leu-Val-Arg-Gly-Arg-Gly-OH (HXEGTFTSDVSCYLEGQAAXEFIAWLVRGRG; Aib; oleoyl-gamma-Glu on Lys; C-terminal acid; Sequence is synthesized; (2)..(2) Xaa is aAib; (20)..(20) Xaa is LyO; (31)..(31) C-terminal) [G6 series 46] | 5
His-βAib-Glu-Gly-Thr-Phe-Thr-Cys-Asp-Val-Ser-Ser-Tyr-Leu-Glu-Gly-Gln-Ala-Ala-Lys-Glu-Phe-Ile-Ala-Trp-Leu-Val-Arg-βAib-Arg-NH2 (H[βAib]EGTFTCDVSSYLEGQAAKEFIAWLVR[βAib]R-NH2; also: disulfide-linked homodimer via Cys) [G8 series 67] | 2
His-βAib-Glu-Gly-Thr-Phe-Thr-Cys-Asp-Val-Ser-Ser-Tyr-Leu-Glu-Gly-Gln-Ala-Ala-Lys[N-ϵ-(N-α-oleoyl-L-γ-glutamyl)]-Glu-Phe-Ile-Ala-Trp-Leu-Val-Arg-Gly-Arg-Gly-NH2 (HXEGTFTCDVSSYLEGQAAXEFIAWLVRGRG; beta-Aib; oleoyl-gamma-Glu on Lys; C-terminal amide; Sequence is synthesized; (2)..(2) Xaa is bAib; (20)..(20) Xaa is 26Lys[N-e-(N-a-oleoyl-L-g-glutamyl)]; (31)..(31) N-terminal) [G8 series 66] | 3
His-βAib-Glu-Gly-Thr-Phe-Thr-Ser-Asp-Val-Cys-Ser-Tyr-Leu-Glu-Gly-Gln-Ala-Ala-Lys-Glu-Phe-Ile-Ala-Trp-Leu-Val-Arg-βAib-Arg-NH2 (H[βAib]EGTFTSDVCSYLEGQAAKEFIAWLVR[βAib]R-NH2; also: disulfide-linked homodimer via Cys) [G2 series 16] | 3
His-βAib-Glu-Gly-Thr-Phe-Thr-Ser-Asp-Val-Cys-Ser-Tyr-Leu-Glu-Gly-Gln-Ala-Ala-Lys-Glu-Phe-Ile-Ala-Trp-Leu-Val-Lys-βAib-Arg-NH2 (H[βAib]EGTFTSDVCSYLEGQAAKEFIAWLVK[βAib]R-NH2; also: disulfide-linked homodimer via Cys) [G2 series 17] | 3
His-βAib-Glu-Gly-Thr-Phe-Thr-Ser-Asp-Val-Cys-Ser-Tyr-Leu-Glu-Gly-Gln-Ala-Ala-Lys[N-ϵ-(N-α-oleoyl)]-Glu-Phe-Ile-Ala-Trp-Leu-Val-Arg-Gly-Arg-Gly-NH2 (HXEGTFTSDVCSYLEGQAAXEFIAWLVRGRG; βAib; oleoyl on Lys; C-terminal amide; Sequence is synthesized; (2)..(2) Xaa is bAib; (20)..(20) Xaa is 26Lys[N-e-(N-a-oleoyl-L-g-glutamyl)]; (31)..(31) N-terminal) [G4 series 30] | 6
His-βAib-Glu-Gly-Thr-Phe-Thr-Ser-Asp-Val-Cys-Ser-Tyr-Leu-Glu-Gly-Gln-Ala-Ala-Lys[N-ϵ-(N-α-oleoyl-L-γ-glutamyl)]-Glu-Phe-Ile-Ala-Trp-Leu-Val-Arg-Gly-Arg-Gly-NH2 (HXEGTFTSDVCSYLEGQAAXEFIAWLVRGRG; βAib; oleoyl-γ-glutamyl on Lys; C-terminal amide; Sequence is synthesized; (2)..(2) Xaa is bAib; (20)..(20) Xaa is 26Lys[N-e-(N-a-oleoyl-L-g-glutamyl)]; (31)..(31) N-terminal) [G2 series 15] | 5
His-βAib-Glu-Gly-Thr-Phe-Thr-Ser-Asp-Val-Ser-Cys-Tyr-Leu-Glu-Gly-Gln-Ala-Ala-Lys-Glu-Phe-Ile-Ala-Trp-Leu-Val-Arg-βAib-Arg-NH2 (H[βAib]EGTFTSDVSCYLEGQAAKEFIAWLVR[βAib]R-NH2; also: disulfide-linked homodimer via Cys12) [G7 series 54] | 2
